Measured values: ChEMBL document CHEMBL1145576, “Synthesis and structure-activity relationship of aminopyrimidine IKK2 inhibitors” (Bioorg Med Chem Lett, 2008)

Key:
[1] = Selectivity ratio of IC50 for IKK1 to IC50 for IKK2
[2] = target: T1, Inhibitor of nuclear factor kappa-B kinase subunit beta (Homo sapiens, UniProt O14920); experiment: Inhibition of IKK2
T1 sequence (O14920 whole entry): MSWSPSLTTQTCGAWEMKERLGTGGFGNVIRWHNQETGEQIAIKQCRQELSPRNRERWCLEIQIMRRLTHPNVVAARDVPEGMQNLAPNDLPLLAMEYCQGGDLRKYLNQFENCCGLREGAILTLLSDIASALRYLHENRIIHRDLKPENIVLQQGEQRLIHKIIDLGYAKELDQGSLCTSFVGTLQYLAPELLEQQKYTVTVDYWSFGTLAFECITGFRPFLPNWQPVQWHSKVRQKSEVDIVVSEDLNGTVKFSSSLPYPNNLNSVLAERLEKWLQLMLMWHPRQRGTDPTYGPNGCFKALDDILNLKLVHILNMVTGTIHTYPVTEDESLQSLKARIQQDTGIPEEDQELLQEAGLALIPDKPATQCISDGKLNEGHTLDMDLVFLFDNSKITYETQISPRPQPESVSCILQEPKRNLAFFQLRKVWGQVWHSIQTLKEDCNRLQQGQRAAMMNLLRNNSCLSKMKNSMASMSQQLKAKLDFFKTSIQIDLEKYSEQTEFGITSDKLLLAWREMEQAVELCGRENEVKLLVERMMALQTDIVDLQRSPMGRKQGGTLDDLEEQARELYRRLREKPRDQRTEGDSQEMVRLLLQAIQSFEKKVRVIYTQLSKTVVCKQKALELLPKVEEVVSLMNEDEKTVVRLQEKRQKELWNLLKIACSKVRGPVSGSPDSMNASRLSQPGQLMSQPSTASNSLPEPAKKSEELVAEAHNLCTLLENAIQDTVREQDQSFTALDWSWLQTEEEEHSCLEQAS

[3] = Selectivity ratio of IC50 for E-selectin promoter transfected in human A549 cells to IC50 for IKK2; assay type: functional
A549 = experiment: Inhibition of TNF-alpha-stimulated E-selectin promoter transfected human A549 cells after 6 hrs; assay type: functional, cell-based; settings: A549, 6 h
[4] = target: T2, Inhibitor of nuclear factor kappa-B kinase subunit alpha (Homo sapiens, UniProt O15111); experiment: Inhibition of IKK1
T2 sequence (O15111 whole entry): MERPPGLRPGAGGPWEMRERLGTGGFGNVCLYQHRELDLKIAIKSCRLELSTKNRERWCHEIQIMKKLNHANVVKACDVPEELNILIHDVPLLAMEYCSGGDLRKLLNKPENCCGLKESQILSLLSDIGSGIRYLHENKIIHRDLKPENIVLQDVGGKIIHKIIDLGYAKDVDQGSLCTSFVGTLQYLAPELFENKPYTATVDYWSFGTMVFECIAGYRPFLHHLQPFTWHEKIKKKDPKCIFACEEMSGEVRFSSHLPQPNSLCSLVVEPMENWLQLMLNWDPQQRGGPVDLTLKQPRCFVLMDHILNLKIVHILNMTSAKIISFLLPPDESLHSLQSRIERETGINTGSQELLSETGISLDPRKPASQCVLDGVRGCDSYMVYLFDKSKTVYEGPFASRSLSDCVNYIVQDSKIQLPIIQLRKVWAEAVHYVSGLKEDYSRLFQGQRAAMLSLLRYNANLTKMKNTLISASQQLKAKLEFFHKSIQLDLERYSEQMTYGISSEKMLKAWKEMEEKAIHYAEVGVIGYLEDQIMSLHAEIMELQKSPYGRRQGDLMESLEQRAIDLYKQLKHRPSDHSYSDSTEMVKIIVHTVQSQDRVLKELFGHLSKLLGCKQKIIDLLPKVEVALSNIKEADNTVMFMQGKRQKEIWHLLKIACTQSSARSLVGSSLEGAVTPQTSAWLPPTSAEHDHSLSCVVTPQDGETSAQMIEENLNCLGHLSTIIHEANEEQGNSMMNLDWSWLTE

[5] = target: T3, Inhibitor of nuclear factor kappa-B kinase subunit alpha (Homo sapiens) (UniProt O15111); experiment: Inhibition of IKK1 at 10 uM
T3 sequence (whole entry): T2 sequence (O15111 whole entry)

Compound	Ratio IC50 [1]	IC50 [2]	IC50 (A549)	IC50 [4]	inhibition [5]	Ratio IC50 [3]
O=S(=O)(c1ccc(-c2ccnc(Nc3ccc4ncsc4c3)n2)cc1)N1CCNCC1	13	64 nM	5700 nM	850 nM	–	89
O=S(=O)(c1ccc(-c2ccnc(Nc3ccc4ncsc4c3)n2)cc1)N1CCCCC1	> 17	600 nM	2080 nM	–	30%	3.5
O=C(Nc1ccc(-c2ccnc(Nc3ccc4ncsc4c3)n2)cc1)C1CCCN1 (stereo unspecified)	1	130 nM	–	146 nM	–	–
c1cn(-c2ccc(-c3ccnc(Nc4ccc5ncsc5c4)n3)cc2)cn1	> 14	700 nM	–	–	34%	–
COc1ccc(S(=O)(=O)Nc2ccc(-c3ccnc(Nc4ccc5ncsc5c4)n3)cc2)cc1	–	8900 nM	–	–	–	–
COc1cccc2nc(-c3cccs3)nc(NN3C(=O)C=C(C)C3=O)c12 [AS-602868]	–	–	–	13000 nM	–	–
O=S(=O)(Nc1ccc(-c2ccnc(Nc3ccc4ncsc4c3)n2)cc1)c1cc(Cl)c(Cl)s1	–	8900 nM	–	–	–	–
O=S(=O)(c1ccccc1)c1ccc(-c2ccnc(Nc3ccc4ncsc4c3)n2)cc1	> 22	440 nM	–	–	24%	–
c1ccc(Oc2ccc(-c3ccnc(Nc4ccc5ncsc5c4)n3)cc2)cc1	–	6600 nM	–	–	–	–
O=S(=O)(c1ccc(-c2ccnc(Nc3ccc4ncsc4c3)n2)cc1)N1CCCC1	–	540 nM	1500 nM	–	48%	2.8
O=S(=O)(Nc1ccc(-c2ccnc(Nc3ccc4ncsc4c3)n2)cc1)c1ccc(Cl)cc1	3	990 nM	–	2990 nM	–	–
Cc1ccc(S(=O)(=O)Nc2ccc(-c3ccnc(Nc4ccc5ncsc5c4)n3)cc2)cc1	–	1500 nM	–	–	–	–
CN1CCN(c2ccc(-c3ccnc(Nc4ccc5ncsc5c4)n3)cc2)CC1	6	410 nM	1270 nM	2630 nM	–	3.1

The next lines start with results.

Ratio IC50 [1]	IC50 [2]	IC50 (A549)	IC50 [4]	inhibition [5]	Compound	Ratio IC50 [3]
–	4000 nM	–	–	–	CN(CCOc1ccc(-c2ccnc(Nc3ccc4ncsc4c3)n2)cc1)c1ccccn1	–
21	230 nM	17800 nM	4840 nM	–	O=S(=O)(Nc1ccc(-c2ccnc(Nc3ccc4ncsc4c3)n2)cc1)c1ccc2nonc2c1	77
–	380 nM	1810 nM	6700 nM	–	O=S(=O)(c1ccc(-c2ccnc(Nc3ccc4ncsc4c3)n2)cc1)N1CCOCC1	4.8
–	3600 nM	–	–	–	c1cnc(Oc2ccc(-c3ccnc(Nc4ccc5ncsc5c4)n3)cc2)nc1	–
–	250 nM	289 nM	5000 nM	–	O=S(=O)(c1ccc(-c2ccnc(Nc3ccc4ncsc4c3)n2)cc1)N1CCSCC1	1.2
> 24	410 nM	1920 nM	–	28%	CN(C)S(=O)(=O)c1ccc(-c2ccnc(Nc3ccc4ncsc4c3)n2)cc1	4.7
–	400 nM	3820 nM	1910 nM	–	O=C(Nc1ccc(-c2ccnc(Nc3ccc4ncsc4c3)n2)cc1)C1CCNCC1	9.5
3	270 nM	–	731 nM	–	NCCC(=O)Nc1ccc(-c2ccnc(Nc3ccc4ncsc4c3)n2)cc1	–
> 4	2500 nM	–	–	14%	O=c1ccn(-c2ccc(-c3ccnc(Nc4ccc5ncsc5c4)n3)cc2)cc1	–
